This passage reports Dmax and IC50 results from patent publication US12310975B2, “Modulators of BCL6 proteolysis and associated methods of use” (Arvinas Operations, Inc., priority 2019, dated 2025).

The Dmax is the greatest extent of degradation seen. Higher therefore signals a fuller loss of target. Usually IC50 stands for the midpoint of a concentration-inhibition curve. The low end stands for inhibition by little substance, the high end for a need for much substance.

This experiment has as its target BCL6 (Homo sapiens (Human), UniProt P41182). Nature of the experiment: Immunofluorescence high content imaging of BCL6 degradation in T47D cells. Type of experiment: cell-based. The note with it: T47D cells. In outline: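 BCL6 loss was quantified by high-content imaging (10×, 4 fields/well) after PFA fixation and anti-BCL6/Alexa-488 staining with Hoechst nuclear and CellMask counterstains. Compounds were applied for 3 days to T47D breast cancer cells in RPMI-10% FBS, 11 points, 3-fold steps, top 0.1 or 1 μM.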
As to `CCn1c(=O)c(OCC(=O)NC)cc2cc(Nc3nc(N4CCC(CN5CCC(c6ccc7c(c6)C(=O)N(C6CCC(=O)NC6=O)C7=O)CC5)CC4)ncc3Cl)ccc21` (stereo not drawn) [compound 364, 2-{[6-({5-chloro-2-[4-({4-[2-(2,6-dioxopiperidin-3-yl)-1,3-dioxo-2,3-dihydro-1H-isoindol-5-yl]piperidin-1-yl}methyl)piperidin-1-yl]pyrimidin-4-yl}amino)-1-ethyl-2-oxo-1,2-dihydroquinolin-3-yl]oxy}-N-methylacetamide], the Dmax was no less than 70% and the IC50 fell in the range of 10 to 50 nM.

As to `CNC(=O)COc1cc2cc(Nc3nc(N4CCC(CN5CCC(c6ccc7c(c6)C(=O)N(C6CCC(=O)NC6=O)C7=O)CC5)CC4)ncc3Cl)ccc2n(C(C)C)c1=O` (stereo not drawn) [compound 365, 2-{[6-({5-chloro-2-[4-({4-[2-(2,6-dioxopiperidin-3-yl)-1,3-dioxo-2,3-dihydro-1H-isoindol-5-yl]piperidin-1-yl}methyl)piperidin-1-yl]pyrimidin-4-yl}amino)-2-oxo-1-(propan-2-yl)-1,2-dihydroquinolin-3-yl]oxy}-N-methylacetamide], the Dmax is no less than 70% and the IC50 is less than 10 nM.

The molecule `CNC(=O)COc1cc2cc(Nc3nc(N4CCC(F)(CN5CCN(c6ccc(C(=O)NC7CCC(=O)NC7=O)c(OC)c6)CC5)CC4)ncc3Cl)ccc2n(C)c1=O` (stereo not drawn) [compound 366, 4-[4-({1-[5-chloro-4-({1-methyl-3-[(methylcarbamoyl)methoxy]-2-oxo-1,2-dihydroquinolin-6-yl}amino)pyrimidin-2-yl]-4-fluoropiperidin-4-yl}methyl)piperazin-1-yl]-N-(2,6-dioxopiperidin-3-yl)-2-methoxybenzamide] yielded a Dmax of 50 to 70% and an IC50 of less than 10 nM.

As for `CNC(=O)COc1cc2cc(Nc3nc(N4CCN(CC5(F)CCN(c6ccc(C(=O)NC7CCC(=O)NC7=O)c(OC)c6)CC5)CC4)ncc3Cl)ccc2n(C)c1=O` (stereo not drawn) [compound 367, 4-[4-({4-[5-chloro-4-({1-methyl-3-[(methylcarbamoyl)methoxy]-2-oxo-1,2-dihydroquinolin-6-yl}amino)pyrimidin-2-yl]piperazin-1-yl}methyl)-4-fluoropiperidin-1-yl]-N-(2,6-dioxopiperidin-3-yl)-2-methoxybenzamide], the Dmax fell in the range of 50 to 70% and the IC50 is less than 10 nM.

With `CNC(=O)COc1cc2cc(Nc3nc(N4CCN(CC5CCN(c6cc(OC)c(C(=O)NC7CCC(=O)NC7=O)c(OC)c6)CC5)CC4)ncc3Cl)ccc2n(C)c1=O` (stereo not drawn) [compound 368, 4-[4-({4-[5-chloro-4-({1-methyl-3-[(methylcarbamoyl)methoxy]-2-oxo-1,2-dihydroquinolin-6-yl}amino)pyrimidin-2-yl]piperazin-1-yl}methyl)piperidin-1-yl]-N-(2,6-dioxopiperidin-3-yl)-2,6-dimethoxybenzamide], the Dmax was less than 50% and the IC50 was in the range of 10 to 50 nM.

`CCn1c(=O)c(OCC(=O)NC)cc2cc(Nc3nc(N4CCN([C@H]5C[C@H](COc6ccc7c(c6)C(=O)N(C6CCC(=O)NC6=O)C7=O)N(C)C5)CC4)ncc3Cl)ccc21` (stereo partly drawn) [compound 371, 2-({6-[(5-chloro-2-{4-[(3S,5R)-5-({[2-(2,6-dioxopiperidin-3-yl)-1,3-dioxo-2,3-dihydro-1H-isoindol-5-yl]oxy}methyl)-1-methylpyrrolidin-3-yl]piperazin-1-yl}pyrimidin-4-yl)amino]-1-ethyl-2-oxo-1,2-dihydroquinolin-3-yl}oxy)-N-methylacetamide] had a Dmax of 50 to 70% and an IC50 of no less than 100 nM.

`CNC(=O)COc1cc2cc(Nc3nc(N4CCC(CN5CCC6(CC5)CN(c5ccc7c(c5)C(=O)N(C5CCC(=O)NC5=O)C7=O)C6)CC4)ncc3Cl)ccc2n(C(C)C)c1=O` (stereo not drawn) [compound 372, 2-{[6-({5-chloro-2-[4-({2-[2-(2,6-dioxopiperidin-3-yl)-1,3-dioxo-2,3-dihydro-1H-isoindol-5-yl]-2,7-diazaspiro[3.5]nonan-7-yl}methyl)piperidin-1-yl]pyrimidin-4-yl}amino)-2-oxo-1-(propan-2-yl)-1,2-dihydroquinolin-3-yl]oxy}-N-methylacetamide] registered a Dmax of 50 to 70% and an IC50 of less than 10 nM.

The molecule `CNC(=O)COc1cc2cc(Nc3nc(NCCc4ccc(C(=O)NC5CCC(=O)NC5=O)nc4)ncc3Cl)ccc2n(C(C)C)c1=O` (stereo not drawn) [compound 373, 5-(2-{[5-chloro-4-({3-[(methylcarbamoyl)methoxy]-2-oxo-1-(propan-2-yl)-1,2-dihydroquinolin-6-yl}amino)pyrimidin-2-yl]amino}ethyl)-N-(2,6-dioxopiperidin-3-yl)pyridine-2-carboxamide] gave an IC50 of no less than 100 nM.

In turn, `CNC(=O)COc1cc2cc(Nc3nc(N4CCC(CN5CC6(CCN(c7ccc8c(c7)C(=O)N(C7CCC(=O)NC7=O)C8=O)CC6)C5)CC4)ncc3Cl)ccc2n(C(C)C)c1=O` (stereo not drawn) [compound 374, 2-{[6-({5-chloro-2-[4-({7-[2-(2,6-dioxopiperidin-3-yl)-1,3-dioxo-2,3-dihydro-1H-isoindol-5-yl]-2,7-diazaspiro[3.5]nonan-2-yl}methyl)piperidin-1-yl]pyrimidin-4-yl}amino)-2-oxo-1-(propan-2-yl)-1,2-dihydroquinolin-3-yl]oxy}-N-methylacetamide] returned a Dmax of no less than 70% and an IC50 of less than 10 nM.

As for `CCn1c(=O)c(OCC(=O)NC)cc2cc(Nc3nc(N4CCN(CC5CCN(c6ccc(C(=O)NC7CCC(=O)NC7=O)c(OC)c6)CC5)CC4)ncc3Cl)ccc21` (stereo not drawn) [compound 375, 4-[4-({4-[5-chloro-4-({1-ethyl-3-[(methylcarbamoyl)methoxy]-2-oxo-1,2-dihydroquinolin-6-yl}amino)pyrimidin-2-yl]piperazin-1-yl}methyl)piperidin-1-yl]-N-(2,6-dioxopiperidin-3-yl)-2-methoxybenzamide], the Dmax was 50 to 70% and the IC50 was less than 10 nM.

For the molecule `CNC(=O)COc1cc2cc(Nc3nc(N4CCN(CC5CCN(c6ccc(C(=O)NC7CCC(=O)NC7=O)c(OC)c6)CC5)CC4)ncc3Cl)ccc2n(C(C)C)c1=O` (stereo not drawn) [compound 376, 4-[4-({4-[5-chloro-4-({3-[(methylcarbamoyl)methoxy]-2-oxo-1-(propan-2-yl)-1,2-dihydroquinolin-6-yl}amino)pyrimidin-2-yl]piperazin-1-yl}methyl)piperidin-1-yl]-N-(2,6-dioxopiperidin-3-yl)-2-methoxybenzamide], the Dmax was 50 to 70% and the IC50 is less than 10 nM.

For the molecule `CNC(=O)COc1cc2cc(Nc3nc(N4CCN(CC5CCN(c6ccc(C(=O)NC7CCC(=O)NC7=O)[n+]([O-])c6)CC5)CC4)ncc3Cl)ccc2n(C)c1=O` (stereo not drawn) [compound 377, 5-[4-({4-[5-chloro-4-({1-methyl-3-[(methylcarbamoyl)methoxy]-2-oxo-1,2-dihydroquinolin-6-yl}amino)pyrimidin-2-yl]piperazin-1-yl}methyl)piperidin-1-yl]-2-[(2,6-dioxopiperidin-3-yl)carbamoyl]pyridin-1-ium-1-olate], the IC50 was no less than 100 nM.

In turn, `CNC(=O)COc1cc2cc(Nc3nc(N4CCO[C@H](CCOc5ccc6c(c5)C(=O)N(C5CCC(=O)NC5=O)C6=O)C4)ncc3Cl)ccc2n(C(C)C)c1=O` (stereo partly drawn) [compound 379, 2-{[6-({5-chloro-2-[(2R)-2-(2-{[2-(2,6-dioxopiperidin-3-yl)-1,3-dioxo-2,3-dihydro-1H-isoindol-5-yl]oxy}ethyl)morpholin-4-yl]pyrimidin-4-yl}amino)-2-oxo-1-(propan-2-yl)-1,2-dihydroquinolin-3-yl]oxy}-N-methylacetamide] registered an IC50 of no less than 100 nM.

Molecule `CNC(=O)COc1cc2cc(Nc3nc(N4CCN(CC5CCCN5c5ccc6c(c5)C(=O)N(C5CCC(=O)NC5=O)C6=O)CC4)ncc3Cl)ccc2n(C(C)C)c1=O` (stereo not drawn) [compound 380, 2-{[6-({5-chloro-2-[4-({1-[2-(2,6-dioxopiperidin-3-yl)-1,3-dioxo-2,3-dihydro-1H-isoindol-5-yl]pyrrolidin-2-yl}methyl)piperazin-1-yl]pyrimidin-4-yl}amino)-2-oxo-1-(propan-2-yl)-1,2-dihydroquinolin-3-yl]oxy}-N-methylacetamide] gave a Dmax of less than 50% and a 50% inhibitory concentration (IC50) of 10 to 50 nM.

Molecule `CNC(=O)COc1cc2cc(Nc3nc(N4C[C@@H](COc5ccc6c(c5)C(=O)N(C5CCC(=O)NC5=O)C6=O)O[C@H](C)C4)ncc3Cl)ccc2n(C(C)C)c1=O` (stereo partly drawn) [compound 382, 2-{[6-({5-chloro-2-[(2S,6R)-2-({[2-(2,6-dioxopiperidin-3-yl)-1,3-dioxo-2,3-dihydro-1H-isoindol-5-yl]oxy}methyl)-6-methylmorpholin-4-yl]pyrimidin-4-yl}amino)-2-oxo-1-(propan-2-yl)-1,2-dihydroquinolin-3-yl]oxy}-N-methylacetamide] gave a Dmax of 50 to 70% and an IC50 of 50 to 100 nM.

`CNC(=O)COc1cc2cc(Nc3nc(N4C[C@@H](COc5ccc6c(c5)C(=O)N(C5CCC(=O)NC5=O)C6=O)O[C@@H](C)C4)ncc3Cl)ccc2n(C(C)C)c1=O` (stereo partly drawn) [compound 383, 2-{[6-({5-chloro-2-[(25,6S)-2-({[2-(2,6-dioxopiperidin-3-yl)-1,3-dioxo-2,3-dihydro-1H-isoindol-5-yl]oxy}methyl)-6-methylmorpholin-4-yl]pyrimidin-4-yl}amino)-2-oxo-1-(propan-2-yl)-1,2-dihydroquinolin-3-yl]oxy}-N-methylacetamide] had a Dmax of 50 to 70% and an IC50 of 10 to 50 nM.

Molecule `CNC(=O)COc1cc2cc(Nc3nc(N4CCC5(CC4)CN(CC4CCN(c6ccc7c(c6)C(=O)N(C6CCC(=O)NC6=O)C7=O)CC4)C5)ncc3Cl)ccc2n(C(C)C)c1=O` (stereo not drawn) [compound 384] had a Dmax of no less than 70% and an IC50 of less than 10 nM.

Turning to `CNC(=O)COc1cc2cc(Nc3nc(N4CCC5(CC4)CN(CC4CCN(c6cccc7c6C(=O)N(C6CCC(=O)NC6=O)C7=O)CC4)C5)ncc3Cl)ccc2n(C(C)C)c1=O` (stereo not drawn) [compound 385, 2-{[6-({5-chloro-2-[2-({1-[2-(2,6-dioxopiperidin-3-yl)-1,3-dioxo-2,3-dihydro-1H-isoindol-4-yl]piperidin-4-yl}methyl)-2,7-diazaspiro[3.5]nonan-7-yl]pyrimidin-4-yl}amino)-2-oxo-1-(propan-2-yl)-1,2-dihydroquinolin-3-yl]oxy}-N-methylacetamide], the Dmax was in the range of 50 to 70% and the IC50 was less than 10 nM.
